Assay results as given in patent US9029531B2 (Agios Pharmaceuticals, Inc., priority 2012, dated 2015).

Each molecule was assayed against T1, glutaminase (GAC) (Homo sapiens, UniProt O94925) (assay: Glutaminase coupled endpoint enzymatic assay (Example A)). Settings: inhibition of glutaminase; assay of Example A or Example B.
T1 sequence (O94925 55-598 isoform O94925-3 limits assumed): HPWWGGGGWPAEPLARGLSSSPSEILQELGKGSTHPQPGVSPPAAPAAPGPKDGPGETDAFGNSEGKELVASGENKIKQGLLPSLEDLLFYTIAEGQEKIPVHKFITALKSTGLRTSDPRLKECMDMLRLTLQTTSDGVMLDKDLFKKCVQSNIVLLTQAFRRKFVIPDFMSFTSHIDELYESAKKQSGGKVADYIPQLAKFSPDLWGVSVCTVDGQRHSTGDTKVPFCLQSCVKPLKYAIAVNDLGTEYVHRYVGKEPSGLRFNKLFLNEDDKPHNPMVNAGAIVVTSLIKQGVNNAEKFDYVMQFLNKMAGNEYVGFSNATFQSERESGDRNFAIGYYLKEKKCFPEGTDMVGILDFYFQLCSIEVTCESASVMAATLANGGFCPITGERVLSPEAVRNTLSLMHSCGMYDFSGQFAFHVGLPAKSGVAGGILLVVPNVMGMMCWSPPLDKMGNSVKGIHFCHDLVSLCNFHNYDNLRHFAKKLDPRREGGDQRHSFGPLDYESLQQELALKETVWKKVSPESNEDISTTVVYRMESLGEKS
Format: biochemical
Description: In certain embodiments, exemplary compounds of Formula I include the compounds described in Table 1 and in the Examples. A compound described herein may be tested for its ability to inhibit glutaminase, e.g., by an assay as described in the Examples. For simplicity, the inhibition activity of these compounds is represented as an IC50 tested in an assay of Example A or Example B in Table 1. […] “N/A” refers to compounds wherein the IC50 is unavailable.
In this example, the enzymatic activity of glutaminase is measured through a coupled endpoint assay. Glutamine and phosphate are supplied to GAC at a concentration equal to Km and AC50, respectively, and GAC concentration is adjusted to give a linear reaction for 60 minutes. The glutamate produced is converted to 2-OG by a kinetic excess of glutamate dehydrogenase. This second step is configured for 2×Km for NAD, since excess NAD is inhibitory. However, a kinetic excess of the third coupling enzyme, diaphorase, recycles NAD from NADH to keep the NAD concentration constant during the timecourse of the assay. Diaphorase, also supplied in kinetic excess, oxidizes NADH produced by GDH back to NAD with the concomitant reduction of rezasurin to the highly fluorescent resorufin. Resorufin in measured after the assay is stopped with SDS by Ex544/Em590. A reduction in the signal indicates inhibition of some component of the coupled enzyme system. Prospective hits are counterscreened against GDH/diaphorase alone to remove hits to the coupling enzyme system in a second assay.
2. Buffers • 2× Buffer (300 mM NaCl, 100 mM HEPES pH 8.5, 0.1% BSA, 0.5 mM EDTA, 100 mM sodium phosphate pH 8.5) • 5× Substrate Mix (1× Buffer final concentration, with 13 mM glutamine, 100 μM resazurin, 50 μg/ml diaphorase) • 1.2× Enzyme Mix (1× Buffer final concentration, with 0.875 μg/ml GAC, 1.56 mM NAD, 6.25 units/ml GDH) • Stop Mix (6% SDS in ddH2O) Reaction Procedure • 1. Add 1 μl compound in 100% DMSO • 2. Add 40 μl of Enzyme Mix and incubate for 60 minute at room temperature • 3. Add 10 μl of Substrate Mix to start reaction • 4. Stop reaction with 25 μl of 6% SDS and read Ex544 Em 590
In the case of `O=C(Cc1cccc(NC2CC(F)(F)C2)n1)Nc1nnc([C@H]2CCC[C@H](c3nnc(NC(=O)Cc4cccc(NC5CC(F)(F)C5)n4)s3)C2)s1` [Compound 250, N,N′-(5,5′-((1S,3S)-cyclohexane-1,3-diyl)bis(1,3,4-thiadiazole-5,2-diyl))bis(2-(6-(3,3-difluorocyclobutylamino)pyridin-2-yl)acetamide)], the IC50 is reported as 100 to 500 nM. In the case of `O=C(Cc1ccccn1)Nc1nnc(CC2CCC(Cc3nnc(NC(=O)Cc4ccccn4)s3)C2)s1` (centres unmarked) [Compound 4, N,N′-(5,5′-(cyclopentane-1,3-diylbis(methylene))bis(1,3,4-thiadiazole-5,2-diyl))bis(2-(pyridin-2-yl)acetamide)], the IC50 is reported as 2000 to 10000 nM. In the case of `COc1cccc(CC(=O)Nc2nnc([C@@H]3CCCC[C@@H](c4nnc(NC(=O)Cc5cccc(OC)c5)s4)C3)s2)c1` [Compound 129], the IC50 is reported as 500 to 1000 nM. Work on `O=C(Cc1cc(N2CCC2)ccn1)Nc1nnc([C@H]2CCC[C@H](c3nnc(NC(=O)Cc4cc(N5CCC5)ccn4)s3)C2)s1` [Compound 254, N,N′-(5,5′-((1S,3S)-cyclohexane-1,3-diyl)bis(1,3,4-thiadiazole-5,2-diyl))bis(2-(4-(azetidin-1-yl)pyridin-2-yl)acetamide)] yielded an IC50 of 100 to 500 nM. For `COc1nc(CC(=O)Nc2nnc([C@H]3CCC[C@H](c4nnc(NC(=O)Cc5csc(OC)n5)s4)C3)s2)cs1` [Compound 279, N,N′-(5,5′-((1S,3S)-cyclohexane-1,3-diyl)bis(1,3,4-thiadiazole-5,2-diyl))bis(2-(2-methoxythiazol-4-yl)acetamide)], the IC50 was less than 100 nM. Molecule `O=C(Cc1ccccn1)Nc1nnc([C@@H]2CCC[C@H](c3nnc(NC(=O)Cc4ccccn4)s3)C2)s1` [Compound 102] has an IC50 of 100 to 500 nM. Molecule `O=C(Cc1ccccc1)Nc1nnc(C2CCCC(c3nnc(NC(=O)Cc4ccccc4)s3)C2)s1` (centres unmarked) [Compound 36] has an IC50 of 1000 to 2000 nM. With `COc1cccc(CC(=O)Nc2nnc(C3CCCCC(c4nnc(NC(=O)Cc5cccc(OC)c5)s4)C3)s2)c1` (centres unmarked) [Compound 120] the IC50 was 500 to 1000 nM. With `O=C(Cc1cccc(N2CC(F)(F)C2)c1)Nc1nnc([C@H]2CCC[C@H](c3nnc(NC(=O)Cc4cccc(N5CC(F)(F)C5)c4)s3)C2)s1` [Compound 269] the IC50 was 100 to 500 nM. Work on `O=C(Cc1cccc(C2CCNCC2)c1)Nc1nnc([C@H]2CCC[C@H](c3nnc(NC(=O)Cc4cccc(C5CCNCC5)c4)s3)C2)s1` [Compound 272, N,N′-(5,5′-((1S,3S)-cyclohexane-1,3-diyl)bis(1,3,4-thiadiazole-5,2-diyl))bis(2-(3-(piperidin-4-yl)phenyl)acetamide)] yielded an IC50 of less than 100 nM. Work on `COc1ccnc(CC(=O)Nc2nnc([C@H]3CCC[C@H](c4nnc(NC(=O)Cc5cc(OC)ccn5)s4)C3)s2)c1` [Compound 223, N,N′-(5,5′-((1S,3S)-cyclohexane-1,3-diyl)bis(1,3,4-thiadiazole-5,2-diyl))bis(2-(4-methoxypyridin-2-yl)acetamide)] yielded an IC50 of less than 100 nM. Work on `CNc1cccc(CC(=O)Nc2nnc([C@H]3CCC[C@H](c4nnc(NC(=O)Cc5cccc(NC)c5)s4)C3)s2)c1` [Compound 264, N,N′-(5,5′-((1S,3S)-cyclohexane-1,3-diyl)bis(1,3,4-thiadiazole-5,2-diyl))bis(2-(3-(methylamino)phenyl)acetamide)] yielded an IC50 of less than 100 nM. In the case of `N#Cc1cccc(CC(=O)Nc2nnc(C3CCCCC(c4nnc(NC(=O)Cc5cccc(C#N)c5)s4)C3)s2)c1` (centres unmarked) [Compound 124], the IC50 is reported as 1000 to 2000 nM. `COc1ccccc1CC(=O)Nc1nnc([C@@H]2CC[C@@H](c3nnc(NC(=O)Cc4ccccc4OC)s3)C2)s1` [Compound 117] gave an IC50 of 500 to 1000 nM. `CCNc1cccc(CC(=O)Nc2nnc([C@H]3CCC[C@H](c4nnc(NC(=O)Cc5cccc(NCC)c5)s4)C3)s2)c1` [Compound 236, N,N′-(5,5′-((1S,3S)-cyclohexane-1,3-diyl)bis(1,3,4-thiadiazole-5,2-diyl))bis(2-(3-(ethylamino)phenyl)acetamide)] gave an IC50 of less than 100 nM. Work on `COc1ccccc1CC(=O)Nc1nnc([C@H]2CC[C@H](c3nnc(NC(=O)Cc4ccccc4OC)s3)C2)s1` [Compound 284, N,N′-(5,5′-((1S,3S)-cyclopentane-1,3-diyl)bis(1,3,4-thiadiazole-5,2-diyl))bis(2-(2-methoxyphenyl)acetamide)] yielded an IC50 of less than 100 nM. `COc1ccnc(CC(=O)Nc2nnc([C@H]3CC[C@H](c4nnc(NC(=O)Cc5cc(OC)ccn5)s4)C3)s2)c1` [Compound 287] gave an IC50 of less than 100 nM. Work on `O=C(Cc1ccccc1)Nc1nnc([C@@H]2CCC[C@H](c3nnc(NC(=O)Cc4ccccc4)s3)C2)s1` [Compound 10, N,N′-(5,5′-((1R,3S)-cyclohexane-1,3-diyl)bis(1,3,4-thiadiazole-5,2-diyl))bis(2-phenylacetamide)] yielded an IC50 of 1000 to 2000 nM. Work on `COc1ccccc1CC(=O)Nc1nnc([C@H]2CCC[C@H](c3nnc(NC(=O)Cc4ccccn4)s3)C2)s1` [Compound 79, 2-(2-methoxyphenyl)-N-(5-((1S,3S)-3-(5-(2-(pyridin-2-yl)acetamido)-1,3,4-thiadiazol-2-yl)cyclohexyl)-1,3,4-thiadiazol-2-yl)acetamide] yielded an IC50 of less than 100 nM. `O=C(Cc1ccc(OC(F)F)cn1)Nc1nnc([C@H]2CCC[C@H](c3nnc(NC(=O)Cc4ccc(OC(F)F)cn4)s3)C2)s1` [Compound 228, N,N′-(5,5′-((1S,3S)-cyclohexane-1,3-diyl)bis(1,3,4-thiadiazole-5,2-diyl))bis(2-(5-(difluoromethoxy)pyridin-2-yl)acetamide)] showed an IC50 of less than 100 nM. `O=C(Cc1cccc(OC(F)(F)F)c1)Nc1nnc([C@H]2CCC[C@H](c3nnc(NC(=O)Cc4cccc(OC(F)(F)F)c4)s3)C2)s1` [Compound 219, N,N′-(5,5′-((1S,3S)-cyclohexane-1,3-diyl)bis(1,3,4-thiadiazole-5,2-diyl))bis(2-(3-(trifluoromethoxy)phenyl)acetamide)] gave an IC50 of 1000 to 2000 nM. `COCCOc1ccc(CC(=O)Nc2nnc([C@H]3CCC[C@H](c4nnc(NC(=O)Cc5cccc(N6CC(F)(F)C6)n5)s4)C3)s2)nc1` [Compound 280, 2-(6-(3,3-difluoroazetidin-1-yl)pyridin-2-yl)-N-(5-((1S,3S)-3-(5-(2-(5-(2-methoxyethoxy)pyridin-2-yl)acetamido)-1,3,4-thiadiazol-2-yl)cyclohexyl)-1,3,4-thiadiazol-2-yl)acetamide] showed an IC50 of less than 100 nM. `COc1cccc(CC(=O)Nc2nnc([C@H]3CCC[C@H](c4nnc(NC(C)=O)s4)C3)s2)c1` [Compound 90, N-(5-((1S,3S)-3-(5-acetamido-1,3,4-thiadiazol-2-yl)cyclohexyl)-1,3,4-thiadiazol-2-yl)-2-(3-methoxyphenyl)acetamide] showed an IC50 of 100 to 500 nM. `COc1ccc(CC(=O)Nc2nnc([C@@H]3CCCC[C@@H](c4nnc(NC(=O)Cc5ccc(OC)cc5)s4)C3)s2)cc1` [Compound 130] gave an IC50 of 1000 to 2000 nM. Molecule `O=C(Cc1ccccc1)Nc1nnc([C@H]2CCC[C@H](c3nnc(NC(=O)Cc4ccccc4)s3)C2)s1` [Compound 9, N,N′-(5,5′-((1S,3S)-cyclohexane-1,3-diyl)bis(1,3,4-thiadiazole-5,2-diyl))bis(2-phenylacetamide)] has an IC50 of less than 100 nM. In the case of `O=C(Cc1c[nH]c2ccccc12)Nc1nnc([C@H]2CCC[C@H](c3nnc(NC(=O)Cc4c[nH]c5ccccc45)s3)C2)s1` [Compound 22], the IC50 is reported as less than 100 nM. `N#Cc1ccc(CC(=O)Nc2nnc(C3CCC(c4nnc(NC(=O)Cc5ccc(C#N)cc5)s4)C3)s2)cc1` (centres unmarked) [Compound 96] showed an IC50 of 100 to 500 nM. For `COc1ccc(F)c(CC(=O)Nc2nnc([C@H]3CCC[C@H](c4nnc(NC(=O)Cc5cc(OC)ccc5F)s4)C3)s2)c1` [Compound 248, N,N′-(5,5′-((1S,3S)-cyclohexane-1,3-diyl)bis(1,3,4-thiadiazole-5,2-diyl))bis(2-(2-fluoro-5-methoxyphenyl)acetamide)], the IC50 was less than 100 nM. In the case of `O=C(Cc1cc(N2CC(F)C2)ccn1)Nc1nnc([C@H]2CCC[C@H](c3nnc(NC(=O)Cc4cc(N5CC(F)C5)ccn4)s3)C2)s1` [Compound 256, N,N′-(5,5′-((1S,3S)-cyclohexane-1,3-diyl)bis(1,3,4-thiadiazole-5,2-diyl))bis(2-(4-(3-fluoroazetidin-1-yl)pyridin-2-yl)acetamide)], the IC50 is reported as less than 100 nM.
